From ChEMBL document CHEMBL1122746, “Tumor inhibitory triazenes. 3. Dealkylation within an homologous series and its relation to antitumor activity” (J Med Chem, 1984)

Experiments:
Mus musculus [1] = assay: Antitumor activity is evaluated as the percent increase in lifespan of TLX/5 tumor bearing animals at 100 mg/kg, daily x 5; type: functional
Mus musculus [2] = assay: Antitumor activity is evaluated as the percent increase in lifespan of TLX/5 tumor bearing animals at 12.5 mg/kg, daily x 5; type: functional
Mus musculus [3] = assay: Antitumor activity is evaluated as the percent increase in lifespan of TLX/5 tumor bearing animals at 200 mg/kg, daily x 5; type: functional
Mus musculus [4] = assay: Antitumor activity is evaluated as the percent increase in lifespan of TLX/5 tumor bearing animals at 25 mg/kg, daily x 5; type: functional
Mus musculus [5] = assay: Antitumor activity is evaluated as the percent increase in lifespan of TLX/5 tumor bearing animals at 400 mg/kg, daily x 5; type: functional
Mus musculus [6] = assay: Antitumor activity is evaluated as the percent increase in lifespan of TLX/5 tumor bearing animals at 50 mg/kg, daily x 5; type: functional
Mus musculus [7] = species on record: Mus musculus; assay: (§1) Compound is evaluated in vitro for percent metabolism by mouse liver microsomes; type: functional; parameters: concentration or dose not given beside the values
Mus musculus [8] = species on record: Mus musculus; assay: (§2) Compound is evaluated in vitro for percent dealkylation by mouse liver microsomes; type: functional; parameters: concentration or dose not given beside the values
Mus musculus [9] = species on record: Mus musculus; assay: Compound is evaluated in vitro for percent demethylation by mouse liver microsomes; type: functional
Mus musculus [10] = species on record: Mus musculus; assay: Compound is evaluated for maximum percentage of increase in life span (ILS) in tumor bearing mice
[11] = Partition coefficient (logP); type: physicochemical; conditions: octanol/water
Mus musculus [12] = species on record: Mus musculus; assay: as §2; type: functional
Mus musculus [13] = species on record: Mus musculus; assay: as §1; type: functional

| SMILES | Increase (Mus musculus [1]) [%] | Increase (Mus musculus [2]) [%] | Increase (Mus musculus [3]) [%] | Increase (Mus musculus [4]) [%] | Increase (Mus musculus [5]) [%] | Increase (Mus musculus [6]) [%] | Activity (Mus musculus [7]) [%] | Activity (Mus musculus [8]) [%] | Activity (Mus musculus [9]) [%] | max % ILS per µmol/kg (Mus musculus [10]) [%·kg/µmol] | logP ([11]; read-out: logP) | logP [11] | Activity (Mus musculus [12]) [%] | Activity (Mus musculus [13]) [%] |
| --- | --- | --- | --- | --- | --- | --- | --- | --- | --- | --- | --- | --- | --- | --- |
| CCCN(C)/N=N/c1ccc(C(N)=O)cc1 | 41 | 7 | 20 | 113 | -45 | 60 | 58.3 | 33 | 25.3 | 0.996 | – | – | – | – |
| CCCN(C)/N=N/c1ccc(C(=O)O)cc1 | – | – | – | – | – | – | – | – | – | – | 0.46 | – | – | – |
| CCCCCCCCCCCCN(C)/N=N/c1ccc(C(N)=O)cc1 | -1 | 1 | 13 | 3 | 9 | 3 | – | – | – | 0.023 | – | – | – | – |
| CCN(C)/N=N/c1ccc(C(=O)O)cc1 | – | – | – | – | – | – | – | – | – | – | 0.04 | – | – | – |
| CN(O)/N=N/c1ccc(C(N)=O)cc1 | 19 | – | 37 | – | 55 | 19 | – | – | – | 0.036 | – | – | – | – |
| C#CCN(C)/N=N/c1ccc(C(=O)O)cc1 | – | – | – | – | – | – | – | – | – | – | 0 | – | – | – |
| CCCCN(C)/N=N/c1ccc(C(=O)O)cc1 | – | – | – | – | – | – | – | – | – | – | 0.97 | – | – | – |
| CC(C)N(C)/N=N/c1ccc(C(=O)O)cc1 | – | – | – | – | – | – | – | – | – | – | 0.34 | – | – | – |
| CN(/N=N/c1ccc(C(N)=O)cc1)C(C)(C)C | 0 | 4 | 0 | -4 | – | -2 | – | – | – | – | – | – | – | – |
| CCCCCN(C)/N=N/c1ccc(C(N)=O)cc1 | 71 | 3 | -28 | 7 | -51 | 79 | 41.5 | 23.5 | 18 | 0.392 | – | – | – | – |
| CCC(C)CN(C)/N=N/c1ccc(C(=O)O)cc1 (stereo not drawn) | – | – | – | – | – | – | – | – | – | – | 1.33 | – | – | – |
| CCCCCCN(C)/N=N/c1ccc(C(N)=O)cc1 | 83 | 4 | 56 | 9 | 30 | 11 | 27 | 14 | 13 | 0.218 | – | – | – | – |
| CCCCCCN(C)/N=N/c1ccc(C(=O)O)cc1 | – | – | – | – | – | – | – | – | – | – | 1.95 | – | – | – |
| CCCCN(C)/N=N/c1ccc(C(N)=O)cc1 | 83 | 18 | -12 | 23 | -51 | 91 | 55 | 33.5 | 21.5 | 0.426 | 2.46 | – | – | – |
| CN(Cc1ccccc1)/N=N/c1ccc(C(N)=O)cc1 | 9 | -3 | 86 | -1 | -36 | 3 | – | – | – | 0.145 | – | – | – | – |
| CN(C)/N=N/c1ccc(C(=O)O)cc1 | – | – | – | – | – | – | – | – | – | – | – | -0.44 | – | – |
| CC(C)N(C)/N=N/c1ccc(C(N)=O)cc1 | 41 | 21 | -10 | 52 | -60 | 45 | – | – | – | 0.458 | 2 | – | – | – |
| CCCCCCCN(C)/N=N/c1ccc(C(=O)O)cc1 | – | – | – | – | – | – | – | – | – | – | 2.58 | – | – | – |
| CON(C)/N=N/c1ccc(C(N)=O)cc1 | -3 | -3 | -7 | -3 | -3 | -5 | – | – | – | – | – | – | – | – |
| CCN(C)/N=N/c1ccc(C(N)=O)cc1 | 76 | 7 | -31 | 84 | -49 | 100 | 61.8 | 33.7 | 28.2 | 0.693 | 1.7 | – | – | – |
| CCCCCCCCN(C)/N=N/c1ccc(C(N)=O)cc1 | 19 | -2 | 112 | 4 | 56 | 4 | 19.5 | 8 | 11.5 | 0.163 | 4.7 | – | – | – |
| CCN(CC)/N=N/c1ccc(C(N)=O)cc1 | – | – | – | – | – | – | 53.3 | 53.3 | 0 | – | – | – | – | – |
| CCCCCCCCN(C)/N=N/c1ccc(C(=O)O)cc1 | – | – | – | – | – | – | – | – | – | – | 2.77 | – | – | – |
| CCCCCCCN(C)/N=N/c1ccc(C(N)=O)cc1 | 65 | 2 | 15 | 6 | -20 | 15 | – | – | 11 | 0.18 | – | – | 12 | 23 |
| CN(CCO)/N=N/c1ccc(C(N)=O)cc1 | 7 | 1 | 42 | 0 | 38 | 5 | – | – | – | 0.047 | – | – | – | – |
| C=CCN(C)/N=N/c1ccc(C(=O)O)cc1 | – | – | – | – | – | – | – | – | – | – | 0.32 | – | – | – |
| CN(C)/N=N/c1ccc(C(N)=O)cc1 | 51 | 94 | -7 | 47 | -26 | 65 | 57.3 | 1.8 | 55.5 | 1.45 | – | – | – | – |
| CCCCCN(C)/N=N/c1ccc(C(=O)O)cc1 | – | – | – | – | – | – | – | – | – | – | 1.49 | – | – | – |
